Molecular target: T1, PPARδ-RXRα heterodimer (Homo sapiens, UniProt Q03181)
T1 construct: expressed in transfected cells; host or cells: COS-1
T1 sequence (Q03181 1-441): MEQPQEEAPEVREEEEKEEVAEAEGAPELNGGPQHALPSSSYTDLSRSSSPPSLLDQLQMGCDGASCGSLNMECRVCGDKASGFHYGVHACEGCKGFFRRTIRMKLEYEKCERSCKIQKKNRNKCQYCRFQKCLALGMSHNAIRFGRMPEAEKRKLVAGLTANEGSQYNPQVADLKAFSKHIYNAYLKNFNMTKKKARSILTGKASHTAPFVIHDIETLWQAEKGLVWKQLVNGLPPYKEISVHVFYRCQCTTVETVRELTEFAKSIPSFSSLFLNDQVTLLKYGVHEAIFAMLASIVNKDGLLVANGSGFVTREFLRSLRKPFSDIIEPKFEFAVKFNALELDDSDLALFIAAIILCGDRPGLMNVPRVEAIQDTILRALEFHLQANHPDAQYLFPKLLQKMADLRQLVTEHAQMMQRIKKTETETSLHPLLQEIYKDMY
T1 sequence (P19793 1-462 partner): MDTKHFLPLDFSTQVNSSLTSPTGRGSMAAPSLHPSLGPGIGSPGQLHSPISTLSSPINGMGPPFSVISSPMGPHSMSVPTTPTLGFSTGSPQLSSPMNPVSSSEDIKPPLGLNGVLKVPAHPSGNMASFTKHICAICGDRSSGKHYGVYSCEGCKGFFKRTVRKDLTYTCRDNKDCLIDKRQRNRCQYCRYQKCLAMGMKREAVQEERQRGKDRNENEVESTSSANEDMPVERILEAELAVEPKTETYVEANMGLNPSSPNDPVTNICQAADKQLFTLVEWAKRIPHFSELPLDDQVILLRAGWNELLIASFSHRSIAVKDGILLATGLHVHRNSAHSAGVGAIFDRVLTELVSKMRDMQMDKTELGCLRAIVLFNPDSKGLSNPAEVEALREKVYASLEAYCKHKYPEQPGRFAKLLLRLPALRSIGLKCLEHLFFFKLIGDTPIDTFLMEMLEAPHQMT
Experiment: PPARδ-RXRα heterodimer ligand activity, luciferase reporter in COS-1 transformant (Test Example 4)
Format: cell-based
Details: COS-1 transformant (hPPARδ, hRXRα, reporter), 36-48 hours, concentration for 50% of the maximum fold induction
How it was run: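 COS-1 cells transiently co-transfected with human PPARδ, human RXRα, PPRE-luciferase reporter and pRL-tk, then exposed to compound 36-48 h at 37 °C in DMEM with 0.1% fatty acid-free BSA. Luciferase read as fold induction over untreated; EC50 at 50% of maximal fold induction.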

Structure (SMILES) | EC50 [nM]
CC(C)c1nn(-c2ccc(C(F)(F)F)cn2)cc1CCCOc1cc(CCC(=O)O)n(-c2ccccc2)n1 [Example 24, 3-[3-(3-{3-isopropyl-1-[5-(trifluoromethyl)-2-pyridyl]-1H-pyrazol-4-yl}propoxy)-1-phenyl-1H-pyrazol-5-yl]propionic acid] | 9.3
CCOc1nn(-c2ccc(C(F)(F)F)cn2)cc1CCCOc1cccc(CC(=O)O)c1 [Example 30, [3-(3-{3-ethoxy-1-[5-(trifluoromethyl)-2-pyridyl]-1H-pyrazol-4-yl}propoxy)phenyl]acetic acid] | 2.6
CCOc1nn(-c2ccc(C(F)(F)F)cn2)cc1CCCOc1ccccc1CC(=O)O [Example 31, (2-(3-{3-ethoxy-1-[5-(trifluoromethyl)-2-pyridyl]-1H-pyrazol-4-yl}propoxy)phenyl]acetic acid] | 9.6
CCOc1nn(-c2ccc(C(F)(F)F)cn2)cc1CCCOc1cc(CCC(=O)O)n(-c2ccccc2)n1 [Example 42, 3-[3-(3-{3-ethoxy-1-[5-(trifluoromethyl)-2-pyridyl]-1H-pyrazol-4-yl}propoxy)-1-phenyl-1H-pyrazol-5-yl]propionic acid] | 1.9
CCCc1nn(-c2ccc(C(F)(F)F)cn2)cc1CCCOc1cc(CCC(=O)O)n(-c2ccccc2)n1 [Example 43, 3-[1-phenyl-3-(3-{3-propyl-1-[5-(trifluoromethyl)-2-pyridyl]-1H-pyrazol-4-yl}propoxy)-1H-pyrazol-5-yl]propionic acid] | 3.7
CCCc1nn(-c2ccc(C(F)(F)F)cn2)cc1CCCCOc1cc(CCC(=O)O)n(-c2ccccc2)n1 [Example 58, 3-[1-phenyl-3-(4-{3-propyl-1-[5-(trifluoromethyl)-2-pyridinyl]-1H-pyrazol-4-yl}butoxy)-1H-pyrazol-5-yl]propanoic acid] | 1.9
CCCc1nn(-c2ccc(C(F)(F)F)cn2)cc1CCCOc1ccc(CCC(=O)O)c(OCC)c1 [Example 98, 3-[2-ethoxy-4-(3-{3-propyl-1-[5-(trifluoromethyl)-2-pyridinyl]-1H-pyrazol-4-yl}propoxy)phenyl]propanoic acid] | 1.2
CCOc1nn(-c2ccc(C(F)(F)F)cn2)cc1CCCCOc1cc(CCC(=O)O)n(-c2ccccc2)n1 [Example 104, 3-[3-(4-{3-ethoxy-1-[5-(trifluoromethyl)-2-pyridinyl]-1H-pyrazol-4-yl}butoxy)-1-phenyl-1H-pyrazol-5-yl]propanoic acid] | 7
CCOc1nn(-c2ccc(C(F)(F)F)cn2)cc1CCCOc1ccc(CCC(=O)O)c(OC(C)C)c1 [Example 116, 3-[4-(3-{3-ethoxy-1-[5-(trifluoromethyl)-2-pyridinyl]-1H-pyrazol-4-yl}propoxy)-2-isopropoxyphenyl]propanoic acid] | 0.6
O=C(O)CCc1cc(OCCCc2cn(-c3ccc(C(F)(F)F)cn3)nc2-c2ccccc2)nn1-c1ccccc1 [Example 125, 3-[1-phenyl-3-(3-{3-phenyl-1-[5-(trifluoromethyl)-2-pyridyl]-1H-pyrazol-4-yl}propoxy)-1H-pyrazol-5-yl]propionic acid] | 1.5
CCOc1nn(-c2ccc(C(F)(F)F)cn2)cc1CCCCOc1ccccc1CC(=O)O [Example 137, [2-(4-{3-ethoxy-1-[5-(trifluoromethyl)-2-pyridyl]-1H-pyrazol-4-yl}butoxy)phenyl]acetic acid] | 9.6
COc1cccc(CC(=O)O)c1OCCCc1cn(-c2ccc(C(F)(F)F)cn2)nc1C(C)C [Example 181, [2-(3-{3-isopropyl-1-[5-(trifluoromethyl)-2-pyridyl]-1H-pyrazol-4-yl}propoxy)-3-methoxyphenyl]acetic acid] | 84
O=C(O)CCc1cc(OCCCc2cn(-c3ccc(C(F)(F)F)cn3)nc2C2CCCCC2)nn1-c1ccccc1 [Example 189, 3-[3-(3-{3-cyclohexyl-1-[5-(trifluoromethyl)-2-pyridyl]-1H-pyrazol-4-yl}propoxy)-1-phenyl-1H-pyrazol-5-yl]propionic acid] | 2.1

Continued, values first:

EC50 [nM] | Structure (SMILES)
1.2 | CCOc1ccc(CC(=O)O)cc1OCCCc1cn(-c2ccc(C(F)(F)F)cn2)nc1C1CCCCC1 [Example 201, [3-(3-{3-cyclohexyl-1-[5-(trifluoromethyl)-2-pyridyl]-1H-pyrazol-4-yl}propoxy)-4-ethoxyphenyl]acetic acid]
42 | CCC(CC)c1nn(-c2ccc(C(F)(F)F)cn2)cc1CCCOc1c(CC(=O)O)cccc1OC [Example 212, [2-(3-{3-(1-ethylpropyl)-1-[5-(trifluoromethyl)-2-pyridyl]-1H-pyrazol-4-yl}propoxy)-3-methoxyphenyl]acetic acid]
8.3 | CCC(CC)c1nn(-c2ccc(C(F)(F)F)cn2)cc1CCCOc1c(C)cccc1CC(=O)O [Example 213, [2-(3-{3-(1-ethylpropyl)-1-[5-(trifluoromethyl)-2-pyridyl]-1H-pyrazol-4-yl}propoxy)-3-methylphenyl]acetic acid]
97 | CCC(CC)c1nn(-c2ccc(Cl)cn2)cc1CCCOc1c(CC(=O)O)cccc1OC [Example 223, (2-{3-[1-(5-chloro-2-pyridyl)-3-(1-ethylpropyl)-1H-pyrazol-4-yl]propoxy}-3-methoxyphenyl)acetic acid]
54 | CCc1cccc(CC(=O)O)c1OCCCc1cn(-c2ccc(C(F)(F)F)cn2)nc1C(C)C [Example 227, [3-ethyl-2-(3-{3-isopropyl-1-[5-(trifluoromethyl)-2-pyridinyl]-1H-pyrazol-4-yl}propoxy)phenyl]acetic acid]
6.1 | CCCc1nn(-c2ccc(C(F)(F)F)cn2)cc1CCCOc1c(Br)cccc1CC(=O)O [Example 237, [3-bromo-2-(3-{3-propyl-1-[5-(trifluoromethyl)-2-pyridinyl]-1H-pyrazol-4-yl}propoxy)phenyl]acetic acid]
130 | CCc1cccc(CC(=O)O)c1OCCCc1cn(-c2ccc(C(F)(F)F)nn2)nc1C(C)C [Example 245, [3-ethyl-2-(3-{3-isopropyl-1-[6-(trifluoromethyl)pyridazin-3-yl]-1H-pyrazol-4-yl}propoxy)phenyl]acetic acid]
320 | COc1cccc(CC(=O)O)c1OCCCc1cn(-c2ccc(C(F)(F)F)nn2)nc1C(C)C [Example 274, [2-(3-{3-isopropyl-1-[6-(trifluoromethyl)pyridazin-3-yl]-1H-pyrazol-4-yl}propoxy)-3-methoxyphenyl]acetic acid]
5.7 | COc1ccc(CC(=O)O)cc1OCCCc1cn(-c2ccc(C(F)(F)F)cn2)nc1C1CCCCC1 [Example 304, [3-(3-{3-cyclohexyl-1-[5-(trifluoromethyl)-2-pyridinyl]-1H-pyrazol-4-yl}propoxy)-4-methoxyphenyl]acetic acid]
280 | COc1cccc(CC(=O)O)c1OCCCc1cn(-c2ccc(Cl)cn2)nc1C(C)C [Example 311, (2-{3-[1-(5-chloro-2-pyridinyl)-3-isopropyl-1H-pyrazol-4-yl]propoxy}-3-methoxyphenyl)acetic acid]
9.9 | Cc1cccc(CC(=O)O)c1OCCCc1cn(-c2ccc(C(F)(F)F)cn2)nc1C1CCCCC1 [Example 316, [2-(3-{3-cyclohexyl-1-[5-(trifluoromethyl)-2-pyridinyl]-1H-pyrazol-4-yl}propoxy)-3-methylphenyl]acetic acid]
5.1 | CCCc1nn(-c2ccc(C(F)(F)F)cn2)cc1CCCOc1c(C)cccc1CC(=O)O [Example 319, [3-methyl-2-(3-{3-propyl-1-[5-(trifluoromethyl)-2-pyridinyl]-1H-pyrazol-4-yl}propoxy)phenyl]acetic acid]
45 | CCC(CC)c1nn(-c2ccc(C(F)(F)F)nn2)cc1CCCOc1c(C)cccc1CC(=O)O [Example 340, [2-(3-{3-(1-ethylpropyl)-1-[6-(trifluoromethyl)pyridazin-3-yl]-1H-pyrazol-4-yl}propoxy)-3-methylphenyl]acetic acid]
72 | CCC(CC)c1nn(-c2ccc(Br)cn2)cc1CCCOc1c(CC(=O)O)cccc1OC [Example 351, (2-{3-[1-(5-bromo-2-pyridinyl)-3-(1-ethylpropyl)-1H-pyrazol-4-yl]propoxy}-3-methoxyphenyl)acetic acid]
150 | Cc1cccc(CC(=O)O)c1OCCCc1cn(-c2ccc(C(F)(F)F)nn2)nc1C(C)(C)C [Example 367, [2-(3-{3-tert-butyl-1-[6-(trifluoromethyl)pyridazin-3-yl]-1H-pyrazol-4-yl}propoxy)-3-methylphenyl]acetic acid]

— patent US20060148858A1, “1, 2-Azole derivatives with hypoglycemic and hypolipidemic activity” (priority 2002, published 2006)
